Assay [1] deals with fibrin monomers. Nature of the assay: Time to clot of GPRP peptide:fibrin monomers mixture (cessation of flow when inverting the tube). The format is biochemical. On the procedure: A mixture of GPRP peptide:fibrin monomers was prepared as follows:
Fibrinogen final concentration used was 1%, 1.5%, 3%, 3.5%. A BAC2 solution [fibrinogen component of EVICEL®] containing 7% clottable fibrinogen was diluted in 20 mM sodium acetate (NaAcetate) buffer, pH 7.0 to obtain the final listed concentrations.
To form fibrin, thrombin (as in EVICEL® Fibrin Sealant) was added to the fibrinogen solution at a final concentration of 10 IU/ml or 100 IU/ml and then the time to clot was recorded. Clotting was assessed by cessation of flow when inverting the tube.
The fibrin monomer concentration was estimated as being equal to the fibrinogen concentration.
All of these (having a ratio of at most 57:1) are below the minimal ratio required for long term stabilization of fibrin monomers. The GPRP:fibrin solution was prepared as described above (by adding a GPRP peptide into a fibrinogen solution and adding thrombin into the GPRP:fibrinogen mix). Next, the time to clotting was recorded as above.

The test system of assay [2] is fibrin monomers. The description is as above. The format is biochemical. The conditions noted are these: 1% fibrin monomers, thrombin 10 or 100 IU/ml.

Entries after “also recorded” stand apart in the source; their conditions may differ.

As to Gly-Pro-Arg-Pro [GPRP], the Time to clot result in the assay with fibrin monomers [1] (1% fibrin monomers, 0.1 mM GPRP, GPRP:fibrin 3.4 fold, thrombin 10 or 100 IU/ml) is “immediately; also recorded: Immediate”; in the assay with fibrin monomers [1] (3% fibrin monomers, 0.1 mM GPRP, GPRP:fibrin 1.1 fold), 5 s; in the assay on fibrin monomers [1] (3% fibrin monomers, 0.2 mM GPRP, GPRP:fibrin 2.3 fold), 7 s; in the assay with fibrin monomers [1] (3% fibrin monomers, 0.5 mM GPRP, GPRP:fibrin 5.7 fold), 11 s; in the assay on fibrin monomers [1] (3% fibrin monomers, 1 mM GPRP, GPRP:fibrin 11.3 fold), 13 s; with fibrin monomers [1] (3% fibrin monomers, 1.5 mM GPRP, GPRP:fibrin 17 fold), 22 s. The Time to clot with fibrin monomers [1] (3% fibrin monomers, 2 mM GPRP, GPRP:fibrin 22.7 fold) is 28 s; in the assay on fibrin monomers [1] (3% fibrin monomers, 3 mM GPRP, GPRP:fibrin 34 fold), 150 s; in the assay with fibrin monomers [1] (3% fibrin monomers, 4 mM GPRP, GPRP:fibrin 45 fold) it was 480 s; in the assay with fibrin monomers [1] (3% fibrin monomers, 5 mM GPRP, GPRP:fibrin 56.7 fold), 900 s; in the assay on fibrin monomers [2] (5 mM GPRP, GPRP:fibrin 170 fold), 4 h; in the assay with fibrin monomers [2] (10 mM GPRP, GPRP:fibrin 340 fold), 170 to 190 h.

The values above are taken from patent US10357589B2, “One component fibrin glue comprising a polymerization inhibitor” (Omrix Biopharmaceuticals Ltd., priority 2013, dated 2019).
